Test results: patent US20240018133A1, “MODULATORS OF THE INTEGRATED STRESS PATHWAY” (Calico Life Sciences LLC, priority 2019, published 2024)
pEC50: −log10 of the molar value.

Tested on: ATF4 luciferase reporter (human full-length ATF4 5'-UTR fused to firefly luciferase) in HEK293T cells
Test: ATF4-Luc assay (in vitro model of VWMD): HEK293T cells carrying ATF4 luciferase reporter, tunicamycin-treated
Format: cell-based
Settings: Homo sapiens, HEK-293T, 1 μg/mL tunicamycin, 7 hours, One Glo luminescence
Protocol: In order to test exemplary compounds of the invention in a cellular context, a stable VWMD cell line was first constructed. The ATF4 reporter was prepared by fusing the human full-length ATF4 5′-UTR (NCBI Accession No. BC022088.2) in front of the firefly luciferase (FLuc) coding sequence lacking the initiator methionine as described in Sidrauski et al (eLife 2013). The construct was used to produce recombinant retroviruses using standard methods and the resulting viral supernatant was used to transduce HEK293T cells, which were then subsequently selected with puromycin to generate a stable cell line.
HEK293T cells carrying the ATF4 luciferase reporter were plated on polylysine coated 384-well plates (Greiner Bio-one) at 30,000 cells per well. Cells were treated the next day with 1 μg/mL tunicamycin and 200 nM of a compound of Formula (I) for 7 hours. Luminescence was measured using One Glo (Promega) as specified by the manufacturer. Cells were maintained in DMEM with L-glutamine supplemented with 10% heat-inactivated FBS (Gibco) and Antibiotic-Antimycotic solution (Gibco).
Table 2 below summarizes the EC50 data obtained using the ATF4-Luc assay for exemplary compounds of the invention.

Compound: O=C(NC12CC(NC(=O)C3CC(O)c4cc(Cl)ccc4O3)(C1)C2)c1cnc(C(F)F)cn1 (centres unmarked) [Compound 213, N-{3-[(6-chloro-4-hydroxy-3,4-dihydro-2H-1-benzopyran-2-carbonyl)amino]bicyclo[1.1.1]pentan-1-yl}-5-(difluoromethyl)pyrazine-2-carboxamide]
- pEC50: 7.30 to 8.00

Compound: O=C(NC12CCC(NC(=O)C3CC(=O)c4cc(Cl)ccc4O3)(CC1)[C@@H](O)C2)c1cc(C(F)F)no1 (stereo partly drawn) [Compound 214, N-{(3S)-4-[(6-chloro-4-oxo-3,4-dihydro-2H-1-benzopyran-2-carbonyl)amino]-3-hydroxybicyclo[2.2.2]octan-1-yl}-3-(difluoromethyl)-1,2-oxazole-5-carboxamide]
- pEC50: 6.30 to 6.60

Compound: O=C(NC12CC(NC(=O)C3CC(=O)c4cc(Cl)ccc4O3)(C1)C2)c1cnc(C(F)F)cn1 (centres unmarked) [Compound 217, N-{3-[(6-chloro-4-oxo-3,4-dihydro-2H-1-benzopyran-2-carbonyl)amino]bicyclo[1.1.1]pentan-1-yl}-5-(difluoromethyl)pyrazine-2-carboxamide]
- pEC50: 6.60 to 7.30

Compound: CS(=O)(=O)NC1CC(C(=O)NC23CC(NC(=O)COc4ccc(Cl)c(F)c4)(C2)C3)Oc2ccc(Cl)cc21 (centres unmarked) [Compound 219, 6-chloro-N-{3-[2-(4-chloro-3-fluorophenoxy)acetamido]bicyclo[1.1.1]pentan-1-yl}-4-[(methanesulfonyl)amino]-3,4-dihydro-2H-1-benzopyran-2-carboxamide]
- pEC50: > 8.00

Compound: CC(=O)NC1CC(C(=O)NC23CC(NC(=O)COc4ccc(Cl)c(F)c4)(C2)C3)Oc2ccc(Cl)cc21 (centres unmarked) [Compound 220, 4-acetamido-6-chloro-N-{3-[2-(4-chloro-3-fluorophenoxy)acetamido]bicyclo[1.1.1]pentan-1-yl}-3,4-dihydro-2H-1-benzopyran-2-carboxamide]
- pEC50: 7.30 to 8.00

Compound: COc1cc2oc(C(=O)NC34CC(NC(=O)COc5ccc(Cl)c(F)c5)(C3)C4)cc(=O)c2cc1OC [Compound 221, N-{3-[2-(4-chloro-3-fluorophenoxy)acetamido]bicyclo[1.1.1]pentan-1-yl}-6,7-dimethoxy-4-oxo-4H-1-benzopyran-2-carboxamide]
- pEC50: < 5.70

Compound: O=C(COc1ccc(Cl)c(F)c1)NC12CC(NC(=O)C3CC(O)c4ccc(F)cc4O3)(C1)C2 (centres unmarked) [Compound 222, N-{3-[2-(4-chloro-3-fluorophenoxy)acetamido]bicyclo[1.1.1]pentan-1-yl}-7-fluoro-4-hydroxy-3,4-dihydro-2H-1-benzopyran-2-carboxamide]
- pEC50: > 8.00

Compound: O=C(COc1ccc(Cl)c(F)c1)NC12CC(NC(=O)[C@H]3CC(=O)c4cc(Cl)ccc4O3)(C1)C2 [Compound 223, (2R)-6-chloro-N-{3-[2-(4-chloro-3-fluorophenoxy)acetamido]bicyclo[1.1.1]pentan-1-yl}-4-oxo-3,4-dihydro-2H-1-benzopyran-2-carboxamide]
- pEC50: > 8.00

Compound: O=C(COc1ccc(Cl)c(F)c1)NC12CC(NC(=O)[C@@H]3CC(=O)c4cc(Cl)ccc4O3)(C1)C2 [Compound 224, (2S)-6-chloro-N-{3-[2-(4-chloro-3-fluorophenoxy)acetamido]bicyclo[1.1.1]pentan-1-yl}-4-oxo-3,4-dihydro-2H-1-benzopyran-2-carboxamide]
- pEC50: > 8.00

Compound: O=C(COc1ccc(C(F)(F)F)nc1)NC12CC(NC(=O)[C@H]3CC(=O)c4cc(Cl)ccc4O3)(C1)C2 [Compound 225, (2R)-6-chloro-4-oxo-N-[3-(2-{[6-(trifluoromethyl)pyridin-3-yl]oxy}acetamido)bicyclo[1.1.1]pentan-1-yl]-3,4-dihydro-2H-1-benzopyran-2-carboxamide]
- pEC50: 7.30 to 8.00

Compound: O=C(COc1ccc(C(F)(F)F)nc1)NC12CC(NC(=O)[C@H]3C[C@@H](O)c4cc(Cl)ccc4O3)(C1)C2 [Compound 226, (2R,4R)-6-chloro-4-hydroxy-N-[3-(2-{[6-(trifluoromethyl)pyridin-3-yl]oxy}acetamido)bicyclo[1.1.1]pentan-1-yl]-3,4-dihydro-2H-1-benzopyran-2-carboxamide]
- pEC50: > 8.00

Compound: COc1ncc(OCC(=O)NC23CC(NC(=O)[C@H]4C[C@@H](O)c5cc(Cl)ccc5O4)(C2)C3)cn1 [Compound 227, (2R,4R)-6-chloro-4-hydroxy-N-(3-{2-[(2-methoxypyrimidin-5-yl)oxy]acetamido}bicyclo[1.1.1]pentan-1-yl)-3,4-dihydro-2H-1-benzopyran-2-carboxamide]
- pEC50: 6.60 to 7.30

Compound: O=C(COc1cnc(C(F)(F)F)nc1)NC12CC(NC(=O)[C@H]3C[C@@H](O)c4cc(Cl)ccc4O3)(C1)C2 [Compound 228, (2R,4R)-6-chloro-4-hydroxy-N-[3-(2-{[2-(trifluoromethyl)pyrimidin-5-yl]oxy}acetamido)bicyclo[1.1.1]pentan-1-yl]-3,4-dihydro-2H-1-benzopyran-2-carboxamide]
- pEC50: 7.30 to 8.00

Compound: O=C(COc1ccc(Cl)c(F)c1)NC12CCC(NC(=O)[C@H]3C[C@@H](O)c4cc(Cl)ccc4O3)(CC1)CC2 [Compound 229, (2R,4R)-6-chloro-N-{4-[2-(4-chloro-3-fluorophenoxy)acetamido]bicyclo[2.2.2]octan-1-yl}-4-hydroxy-3,4-dihydro-2H-1-benzopyran-2-carboxamide]
- pEC50: > 8.00

Compound: O=C(COc1ccc(Cl)c(F)c1)NC12CC(NC(=O)c3cc(=O)c4ccc(C(F)(F)F)cc4o3)(C1)C2 [Compound 230, N-{3-[2-(4-chloro-3-fluorophenoxy)acetamido]bicyclo[1.1.1]pentan-1-yl}-4-oxo-7-(trifluoromethyl)-4H-1-benzopyran-2-carboxamide]
- pEC50: > 8.00

Compound: O=C(COc1ccc(Cl)c(F)c1)NC12CC(NC(=O)c3cc(=O)c4cc(Cl)c(F)cc4o3)(C1)C2 [Compound 231, 6-chloro-N-{3-[2-(4-chloro-3-fluorophenoxy)acetamido]bicyclo[1.1.1]pentan-1-yl}-7-fluoro-4-oxo-4H-1-benzopyran-2-carboxamide]
- pEC50: > 8.00

Compound: O=C(COc1ccc(Cl)c(F)c1)NC12CC(NC(=O)c3cc(=O)c4cc(F)c(Cl)cc4o3)(C1)C2 [Compound 232, 7-chloro-N-{3-[2-(4-chloro-3-fluorophenoxy)acetamido]bicyclo[1.1.1]pentan-1-yl}-6-fluoro-4-oxo-4H-1-benzopyran-2-carboxamide]
- pEC50: > 8.00

Compound: O=C(COc1ccc(Cl)cn1)NC12CC(NC(=O)[C@H]3C[C@@H](O)c4cc(Cl)ccc4O3)(C1)C2 [Compound 233, (2R,4R)-6-chloro-N-(3-{2-[(5-chloropyridin-2-yl)oxy]acetamido}bicyclo[1.1.1]pentan-1-yl)-4-hydroxy-3,4-dihydro-2H-1-benzopyran-2-carboxamide]
- pEC50: 7.30 to 8.00

Compound: O=C(COc1ccc(Cl)c(F)c1)NC12CC(NC(=O)c3cc(=O)c4ccc(Cl)cc4o3)(C1)C2 [Compound 235, 7-chloro-N-{3-[2-(4-chloro-3-fluorophenoxy)acetamido]bicyclo[1.1.1]pentan-1-yl}-4-oxo-4H-1-benzopyran-2-carboxamide]
- pEC50: 7.30 to 8.00

Compound: Cc1cc2oc(C(=O)NC34CC(NC(=O)COc5ccc(Cl)c(F)c5)(C3)C4)cc(=O)c2cc1Cl [Compound 236, 6-chloro-N-{3-[2-(4-chloro-3-fluorophenoxy)acetamido]bicyclo[1.1.1]pentan-1-yl}-7-methyl-4-oxo-4H-1-benzopyran-2-carboxamide]
- pEC50: > 8.00

Compound: CC1(C(=O)NC23CC(NC(=O)COc4ccc(Cl)c(F)c4)(C2)C3)CCc2cc(Cl)ccc2O1 (centres unmarked) [Compound 240, 6-chloro-N-{3-[2-(4-chloro-3-fluorophenoxy)acetamido]bicyclo[1.1.1]pentan-1-yl}-2-methyl-3,4-dihydro-2H-1-benzopyran-2-carboxamide]
- pEC50: 7.30 to 8.00

Compound: Cc1cc2c(cc1F)[C@@H](O)C[C@@H](C(=O)NC13CC(NC(=O)COc4ccc(Cl)c(F)c4)(C1)C3)O2 [Compound 242, (2S,4S)—N-{3-[2-(4-chloro-3-fluorophenoxy)acetamido]bicyclo[1.1.1]pentan-1-yl}-6-fluoro-4-hydroxy-7-methyl-3,4-dihydro-2H-1-benzopyran-2-carboxamide]
- pEC50: > 8.00

Compound: O=C(COc1ccc(Cl)c(F)c1)NC12CC(NC(=O)C3CC(O)c4ccc(C(F)(F)F)cc4O3)(C1)C2 (centres unmarked) [Compound 243, N-{3-[2-(4-chloro-3-fluorophenoxy)acetamido]bicyclo[1.1.1]pentan-1-yl}-4-hydroxy-7-(trifluoromethyl)-3,4-dihydro-2H-1-benzopyran-2-carboxamide]
- pEC50: > 8.00

Compound: CS(=O)(=O)N[C@H]1C[C@H](C(=O)NC23CC(NC(=O)COc4ccc(Cl)c(F)c4)(C2)C3)Oc2ccc(Cl)cc21 [Compound 244, (2R,4S)-6-chloro-N-{3-[2-(4-chloro-3-fluorophenoxy)acetamido]bicyclo[1.1.1]pentan-1-yl}-4-[(methanesulfonyl)amino]-3,4-dihydro-2H-1-benzopyran-2-carboxamide]
- pEC50: 7.30 to 8.00

Compound: CS(=O)(=O)N[C@@H]1C[C@@H](C(=O)NC23CC(NC(=O)COc4ccc(Cl)c(F)c4)(C2)C3)Oc2ccc(Cl)cc21 [Compound 245, (2S,4R)-6-chloro-N-{3-[2-(4-chloro-3-fluorophenoxy)acetamido]bicyclo[1.1.1]pentan-1-yl}-4-[(methanesulfonyl)amino]-3,4-dihydro-2H-1-benzopyran-2-carboxamide]
- pEC50: > 8.00

Compound: O=C(COc1ccc(Cl)c(F)c1)NC12CC(NC(=O)C3CC(O)c4cc(F)c(Cl)cc4O3)(C1)C2 (centres unmarked) [Compound 246, 7-chloro-N-{3-[2-(4-chloro-3-fluorophenoxy)acetamido]bicyclo[1.1.1]pentan-1-yl}-6-fluoro-4-hydroxy-3,4-dihydro-2H-1-benzopyran-2-carboxamide]
- pEC50: > 8.00
